Article PMC9183037 (Polymers, 2022)

Experiments:
Caco-2 cells = test: Cytotoxicity by MTT assay, 4 h incubation; type: cell-based, Human; settings: 0.03-1 μM
Protocol: (§1) The cytotoxicity of chitosan-based nanoparticles was measured by MTT assay. Caco-2, HT-29, and Raji-B cells at the logarithmic growth stage were inoculated on 96-well plates at 5 × 10^3 cells per well, respectively. The cells were cultured at 37 °C, 5% CO2 for 48 h, then the culture medium was removed and 150 μL of drug-containing culture medium was added to the final concentrations of 1, 0.5, 0.25, 0.125, 0.06, and 0.03 μM. After incubation for 4 h, 20 μL of MTT solution (5 mg/mL) was added to each well, which was incubated for an additional 4 h. Then, the culture medium was discarded and replaced with 150 μL dimethyl sulfoxide. The plates were placed on the shaker and oscillated for 10 min.
(§2) The absorbance was measured at 570 nm using an enzyme marker (ST360, KHB, Shanghai, China). Cell viability was calculated as a percentage of the absorbance relative to that of the control.

HT-29 cells = test: Cytotoxicity by MTT assay, 4 h incubation; type: cell-based, Human; settings: 0.03-1 μM
Protocol: as §1, §2

Raji-B cells = test: Cytotoxicity by MTT assay, 4 h incubation; type: cell-based, Human; settings: 0.03-1 μM
Protocol: as §1, §2

type 2 diabetic rats = test: In vivo pharmacodynamics study: blood glucose in type 2 diabetic rats; parameters: species or system Sprague-Dawley (SD) rats; settings: T2DM rats, subcutaneous 65 μg/kg
Protocol: SD rats were fed high-fat diets containing 45% fat to induce insulin resistance. After one-month diets, a standard 16 h fast in SD rats was conducted, and a 30 mg/mL STZ solution prepared with 0.1 mol/L citrate-sodium citrate buffer (pH 4.5) was injected intraperitoneally at a dose of 30 mg/kg (avoid light, the injection was completed within 30 min). Then the rats were given sufficient water and fasted. Restored the diet after 2 h. If the fasting blood glucose was higher than 16.67 mmol/L for two consecutive times, and the rats were accompanied by significant polydipsia, polyphagia, polyuria, and weight loss, it is considered to be successfully modeled and subsequent experiments could be carried out. To evaluate therapeutic effects, thirty T2DM rats were randomly divided into five groups, fasted overnight, and labeled respectively. […] Blood samples were collected from the tail tip at 0, 0.5, 1, 2, 3, 4, 6, and 10 h after administration to observe the changes in blood glucose levels, and the blood glucose-time curve was plotted.

Row | Compound | cytotoxicity to Caco-2 cells (Caco-2 cells) | cytotoxicity to HT-29 cells (HT-29 cells) | cytotoxicity to Raji B cells (Raji-B cells) | time of minimum blood glucose concentration (type 2 diabetic rats) | change of blood glucose concentration (type 2 diabetic rats; 0-10 h)
1 | CCN(CC)c1ccc2c(-c3ccccc3C(=O)O)c3ccc(=[N+](CC)CC)cc-3oc2c1 [Rhodamine B] | no cytotoxicity | no cytotoxicity | no cytotoxicity | – | –
2 | Insulin | – | – | – | 3 h | decreased significantly within 3 h
